This is an account of results in PubChem BioAssay (NCI).

“And” between values parts separate entries of the source, which are not always exact repeats. Identical values can stand only once.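 These data come from cells grown in 96-well plates and exposed to compound for 48 hours at five concentrations. GI50 marks 50% less growth. Definition used: TGI = concentration required for complete inhibition of growth.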

Among the test systems are UACC-62 melanoma; OVCAR-4 ovarian; KM12 colon; SK-MEL-5 melanoma; 786-0 renal; MDA-MB-231 breast; OVCAR-8 ovarian; U251 CNS; K-562 leukemia; ACHN renal.
Experiment in all cases: NCI-60 cell line screen, 48 h

On to `C/C=C(\C)c1cc(=O)c2c(C)cc3c(c2o1)C(=O)c1c(O)c(C2CC(C)(N(C)C)C(OC(C)=O)C(C)O2)cc(C2CC(N(C)C)C(O)C(C)O2)c1C3=O` (stereo unspecified), for which the TGI turned out to be 3.97 µM in the test on UACC-62 melanoma; 10.2 µM with OVCAR-4 ovarian; 6.49 µM with KM12 colon; 1.59 µM in the test with SK-MEL-5 melanoma; 5.68 µM in the test on 786-0 renal; 5.96 µM in the test on MDA-MB-231 breast. In addition, the TGI in the test on OVCAR-8 ovarian was more than 17.5 µM; in the test with U251 CNS, more than 50 µM; in the test on K-562 leukemia, more than 50 µM; in the test with ACHN renal it was 10 µM.
With `COC(COC(N)=O)C1=C(N2CC2)C(=O)C(C)=C(N2CC2)C1=O` (stereo unspecified), the TGI in the test with UACC-62 melanoma amounted to 0.173 µM; in the test on OVCAR-4 ovarian, 0.413 µM; with KM12 colon, 0.365 µM; in the test on SK-MEL-5 melanoma, 0.128 µM; in the test with 786-0 renal, 0.186 µM; with MDA-MB-231 breast it was 0.859 µM. For the same compound, the TGI with OVCAR-8 ovarian is 0.24 µM; in the test on U251 CNS, 0.698 µM; in the test on K-562 leukemia it was 1.76 µM; with ACHN renal it was 0.0449 µM.
For `O=C(NCCCCN1CCOCC1)c1cc2ccccc2o1`, the GI50 in the test on UACC-62 melanoma, in the test with OVCAR-4 ovarian, in the test on KM12 colon, with SK-MEL-5 melanoma, in the test on 786-0 renal and with MDA-MB-231 breast was more than 100 µM in each case. In addition, the GI50 in the test on OVCAR-8 ovarian, with U251 CNS, in the test with K-562 leukemia and in the test on ACHN renal was more than 100 µM throughout. Moreover, the TGI in the test with UACC-62 melanoma, in the test on OVCAR-4 ovarian, in the test with KM12 colon, in the test with SK-MEL-5 melanoma, with 786-0 renal and in the test with MDA-MB-231 breast was more than 100 µM in each case. Also, the TGI with OVCAR-8 ovarian, in the test on U251 CNS, in the test with K-562 leukemia and in the test with ACHN renal was more than 100 µM throughout.
For `CCc1nc(N)nc(N)c1-c1ccc(Cl)c([N+](=O)[O-])c1`, the TGI in the test on UACC-62 melanoma is more than 86.4 µM; in the test on OVCAR-4 ovarian, more than 100 µM; in the test on KM12 colon, more than 100 µM; in the test with SK-MEL-5 melanoma, 48.8 µM; in the test on 786-0 renal, more than 100 µM; with MDA-MB-231 breast it was more than 100 µM. In addition, the TGI in the test on OVCAR-8 ovarian, in the test with U251 CNS, in the test on K-562 leukemia and with ACHN renal was more than 100 µM each time.
Regarding `O=C1N[C@@H]2[C@@H](O)[C@@H](O)[C@H](O)C[C@H]2c2cc3c(c(O)c21)OCCO3`, the GI50 was 0.272 µM in the test on UACC-62 melanoma; 0.217 µM in the test with OVCAR-4 ovarian; 0.169 µM with KM12 colon; 0.192 µM in the test on SK-MEL-5 melanoma; 0.293 µM in the test on 786-0 renal; 0.236 µM in the test on MDA-MB-231 breast. The GI50 was 0.287 µM with OVCAR-8 ovarian, 0.238 µM in the test on U251 CNS, 0.13 µM with K-562 leukemia and 0.306 µM in the test on ACHN renal. For the same compound, the TGI in the test with UACC-62 melanoma is 1.38 µM; with OVCAR-4 ovarian it was 0.838 µM; with KM12 colon, 1.1 µM; with SK-MEL-5 melanoma, 0.478 µM; in the test with 786-0 renal it was 2.08 µM; with MDA-MB-231 breast it was 1.07 µM. Also, the TGI in the test with OVCAR-8 ovarian came out at 3.21 µM; with U251 CNS, 8.42 µM; with K-562 leukemia, 11.2 µM; in the test on ACHN renal, 1.46 µM.
On to `COc1ccc(Nc2nc3cc(N)cc(N)c3nc2-c2ccccc2)cc1`, for which the GI50 in the test on UACC-62 melanoma was 16.8 µM; in the test on OVCAR-4 ovarian it was 10.4 µM; in the test on KM12 colon, 15.9 µM; in the test with SK-MEL-5 melanoma, 15.3 µM; in the test with 786-0 renal, 16 µM; in the test with MDA-MB-231 breast it was 11.6 µM. For the same compound, the GI50 with OVCAR-8 ovarian is 13.9 µM; with U251 CNS it was 16.3 µM; with K-562 leukemia, 29.8 µM; in the test on ACHN renal it was 15.3 µM. The TGI was found to be 30.5 µM with UACC-62 melanoma; 22.1 µM with OVCAR-4 ovarian; 30.9 µM in the test on KM12 colon; 28.6 µM in the test on SK-MEL-5 melanoma; 31.2 µM in the test on 786-0 renal; 25.2 µM in the test with MDA-MB-231 breast. Also, the TGI in the test with OVCAR-8 ovarian was 30.6 µM; in the test on U251 CNS, 29.8 µM; in the test on K-562 leukemia, more than 100 µM; in the test with ACHN renal it was 43.3 µM.
For `COC(=O)[C@@H]1c2cc3c(c(O)c2[C@@H](OC2OC(C)C(OC)C(C)(OC)C2OC)C[C@]1(C)O)C(=O)c1c(O)cc2c(c1C3=O)O[C@H]1O[C@]2(C)[C@H](O)[C@@H](N(C)C)[C@@H]1O` (stereo partly specified), the TGI in the test with UACC-62 melanoma is 0.0206 µM and 0.0277 µM; in the test on OVCAR-4 ovarian it was 0.291 µM; with KM12 colon it was 0.0425 µM and 0.0508 µM; in the test on SK-MEL-5 melanoma, 0.0278 µM; with 786-0 renal it was 2.1 µM; in the test with MDA-MB-231 breast, 0.214 µM. Besides, the TGI with OVCAR-8 ovarian is 0.532 µM and 0.348 µM; with U251 CNS, 0.443 µM and 0.236 µM; in the test on K-562 leukemia it was 0.399 µM and 0.162 µM; with ACHN renal, 0.951 µM and 5.37 µM. Moreover, the GI50 in the test on ACHN renal was 0.0114 µM.
`O=c1oc2ccc(I)cc2c(=O)n1-c1ccc(Br)cc1F`: the GI50 was 0.31 µM in the test on UACC-62 melanoma; 1.12 µM in the test with OVCAR-4 ovarian; 2.07 µM with KM12 colon; 0.317 µM in the test on SK-MEL-5 melanoma; 2.42 µM in the test on 786-0 renal; 0.457 µM in the test on MDA-MB-231 breast. The GI50 in the test on OVCAR-8 ovarian is 0.821 µM; in the test on U251 CNS, 0.75 µM; with K-562 leukemia, 0.536 µM; in the test on ACHN renal, 0.751 µM. Further, the TGI worked out at 1.17 µM in the test on UACC-62 melanoma; 16.5 µM with OVCAR-4 ovarian; 4.69 µM in the test with KM12 colon; 1.04 µM in the test on SK-MEL-5 melanoma; 7.12 µM in the test with 786-0 renal; 3.79 µM in the test with MDA-MB-231 breast. Moreover, the TGI in the test with OVCAR-8 ovarian was 11.8 µM; with U251 CNS it was more than 37.5 µM; in the test on K-562 leukemia, more than 71.7 µM; in the test on ACHN renal it was 10.7 µM.
`COc1cc2c(cc1OC(C)C)[C@H](c1ccc(Cl)cc1)N(c1ccc(N(C)CC3CCC(N4CCN(C)C(=O)C4)CC3)cc1)C(=O)C2` (stereo partly specified): the GI50 with UACC-62 melanoma is 0.521 µM; with OVCAR-4 ovarian it was 2.99 µM; in the test with KM12 colon, 3.13 µM; with SK-MEL-5 melanoma it was 1.44 µM; in the test with 786-0 renal, 2.85 µM; in the test with MDA-MB-231 breast it was 2.04 µM. Also, the GI50 was 5.86 µM in the test on OVCAR-8 ovarian, 3.34 µM with U251 CNS, 3.56 µM in the test with K-562 leukemia and 0.32 µM in the test on ACHN renal. Moreover, the TGI with UACC-62 melanoma came out at 3.52 µM; in the test on OVCAR-4 ovarian, 9.85 µM; in the test with KM12 colon, 9.11 µM; with SK-MEL-5 melanoma, 2.84 µM; in the test on 786-0 renal, 8.73 µM; in the test with MDA-MB-231 breast it was 4.02 µM. The TGI in the test on OVCAR-8 ovarian is 20.3 µM; in the test with U251 CNS, 8.44 µM; in the test on K-562 leukemia, 16.9 µM; in the test with ACHN renal, 3.62 µM.
